# Reference: patent US5635477A, “Cyclic compounds useful as inhibitors of platelet glycoprotein IIB/IIIA” (The DuPont Merck Pharmaceutical Company, priority 1995, dated 1997)
# “Also recorded” adds a separate entry of the source. Like-named read-outs stand apart in the source and are kept apart here. Starred links: 1 amine or outer side, 2 acyl side, 3 side chain; linkers in the order of their positions; H or OH if unused. Non-standard residues stand in square brackets, D forms with d. Residues, ends and D or L forms follow the SMILES beside them. X4 = O=C(c1cc(CN[*:1])ccc1Cl)[*:2]; NMeR = CN[C@@H](CCCNC(=N)N)C(=O)O; X3 = Cc1ccc(CN[*:1])cc1C(=O)[*:2]; X8 = O=C(c1cc(CN[*:1])ccc1I)[*:2]; 3Amb = NCc1cccc(C(=O)O)c1; dAbu = CC[C@@H](N)C(=O)O
# How the values were obtained:
# [1] = biological target: T1, purified GPIIb/IIIa receptors obtained from human platelets (Homo sapiens, UniProt P05106+P08514); test: purified GPIIb/IIIa-biotinylated fibrinogen ELISA; type: binding; settings: competitive; Michaelis-Menten analysis
# T1 construct: purified GPIIb/IIIa receptors obtained from human platelets; from tissue; host or cells: human platelets
# Text: (§1) This effect may explain the lyric efficacy of the compounds of the present invention.
# [2] = test system: already formed platelet-rich clot; settings: for lytic effect on already formed platelet-rich clot: varying concentrations
# Description: Thrombolytic Assay: Venous blood was obtained from the arm of a healthy human donor who was drug-free and aspirin free for at least two weeks prior to blood collection, and placed into 10 ml citrated Vacutainer tubes. The blood was centrifuged for 15 minutes at 1500 ×g at room temperature, and platelet rich plasma (PRP) was removed. To the PRP was then added 1×10^- 3M of the agonist ADP, epinephrine, collagen, arachidonate, serotonin or thrombin, or a mixture thereof, and the PRP incubated for 30 minutes. The PRP was centrifuged for 12 minutes at 2500×g at room temperature. The supernatant was then poured off, and the platelets remaining in the test tube were resuspended in platelet poor plasma (PPP), which served as a plasminogen source. The suspension was then assayed on a Coulter Counter (Coulter Electronics, Inc., Hialeah, Fla.), to determine the platelet count at the zero time point. After obtaining the zero time point, test compounds were added at various concentrations. Test samples were taken at various time points and the platelets were counted using the Coulter Counter. To determine the percent of lysis, the platelet count at a time point subsequent to the addition of the test compound was subtracted from the platelet count at the zero time point, and the resulting number divided by the platelet count at the zero time point. […] For the IC50 evaluation, the test compounds were added at various concentrations, and the percentage of lysis caused by the test compounds was calculated.
# Compounds A and B were also tested at varying concentrations using the thrombolytic assay described above (FIG. Ib). […] The clot was formed by incubating platelets with a mixture of agonists (TEAC mixture), which consists of thrombin (0.01 U/ml), epinephrine (250 uM), ADP (250 uM), and collagen (10 ug.ml), for 30 minutes. As a comparison, a linear peptide of sequence arginine-glycine-aspartic acid-serine (RGDS) was also tested in the thrombolytic assay.
# [3] = test system: activated human platelets; test: binding of 3H-labeled Compound A to activated human platelets; settings: Scatchard analysis
# Text: as §1
# [4] = test system: thrombus in the femoral artery; test: in vivo thrombolysis, modified Lucchesi model; settings: listed as Compound A
# Text: Data represent mean±SEM. n=3-6 in each group.
# [5] = biological target: agonist-induced platelet aggregation (Homo sapiens, UniProt P05106+P08514); test: Platelet Aggregation Assay; type: cell-based; settings: human PRP; for IC50: agonist-induced aggregation
# Description: Blood was collected into 10 ml citrated Vacutainer tubes.
# [6] = test system: femoral artery reocclusion; test: femoral artery reocclusion post-thrombolysis; type: in vivo, canine (male or female mongrel dogs)
# Description: Effects of Compound A vs saline, when given to anesthetized canine (male or female mongrel dogs) at 1.0 mg/kg I.V., on the incidence of femoral artery reocclusion post-thrombolysis with streptokinase (250-300×1000 IU/kg) or t-PA. […] Data represents mean ±SEM, n=6 in each group.
# [7] = biological target: T2, platelet GPIIb/IIIa receptor (Homo sapiens, UniProt P05106+P08514); test: Platelet-Fibrinogen Binding Assay (125I-fibrinogen, h-GPP); settings: fibrinogen bound 20 minutes before compound
# T2 construct: Human PRP (h-PRP) was applied to a Sepharose column for the purification of platelet fractions; endogenous in cells; host or cells: human gel-purified platelets (h-GPP) from donor platelet-rich plasma
# Description: Platelet-Fibrinogen Binding Assay: Binding of ^125 I-fibrinogen to platelets was performed as described by Bennett et al. (1983) Proc. Natl. Acad. Sci. USA 80: 2417-2422, with some modifications as described below. Human PRP (h-PRP) was applied to a Sepharose column for the purification of platelet fractions. Aliquots of platelets (5×10^8 cells) along with 1 mM calcium chloride were added to removable 96 well plates prior to the activation of the human gel purified platelets (h-GPP). Activation of the human gel purified platelets was achieved using ADP, collagen, arachidonate, epinephrine, and/or thrombin in the presence of the ligand, ^125 I-fibrinogen. The ^125 I-fibrinogen bound to the activated, platelets was separated from the free form by centrifugation and then counted on a gamma counter.
# [8] = test system: platelet granular secretion; settings: cited from earlier work
# Sequence of agonist-induced platelet aggregation (P08514 32-1039): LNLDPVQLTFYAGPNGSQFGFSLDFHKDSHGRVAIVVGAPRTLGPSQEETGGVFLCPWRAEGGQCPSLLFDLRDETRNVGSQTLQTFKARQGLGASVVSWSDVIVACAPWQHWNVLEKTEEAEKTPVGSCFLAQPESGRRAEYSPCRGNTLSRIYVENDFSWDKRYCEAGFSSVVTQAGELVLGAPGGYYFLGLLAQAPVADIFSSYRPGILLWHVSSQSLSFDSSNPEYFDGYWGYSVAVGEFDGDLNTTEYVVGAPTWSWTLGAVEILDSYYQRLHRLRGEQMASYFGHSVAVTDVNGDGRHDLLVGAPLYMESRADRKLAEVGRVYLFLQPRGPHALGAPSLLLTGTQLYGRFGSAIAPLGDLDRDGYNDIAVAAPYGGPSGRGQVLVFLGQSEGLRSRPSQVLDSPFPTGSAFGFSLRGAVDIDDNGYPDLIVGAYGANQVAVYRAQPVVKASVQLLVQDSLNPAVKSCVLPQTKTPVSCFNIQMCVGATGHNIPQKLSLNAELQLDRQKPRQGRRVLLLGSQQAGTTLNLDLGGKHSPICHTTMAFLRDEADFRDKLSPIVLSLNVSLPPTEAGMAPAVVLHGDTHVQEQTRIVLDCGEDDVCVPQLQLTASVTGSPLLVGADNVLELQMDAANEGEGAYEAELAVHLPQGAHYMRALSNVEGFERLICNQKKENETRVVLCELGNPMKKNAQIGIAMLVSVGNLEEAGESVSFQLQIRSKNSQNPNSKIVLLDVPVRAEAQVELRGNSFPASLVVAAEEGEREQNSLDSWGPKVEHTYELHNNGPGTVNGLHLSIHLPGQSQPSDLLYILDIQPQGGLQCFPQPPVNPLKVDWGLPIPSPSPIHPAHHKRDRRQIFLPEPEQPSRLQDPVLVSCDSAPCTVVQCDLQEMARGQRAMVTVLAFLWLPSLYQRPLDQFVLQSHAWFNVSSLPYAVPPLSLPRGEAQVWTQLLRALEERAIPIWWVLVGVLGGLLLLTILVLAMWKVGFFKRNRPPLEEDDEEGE
# Sequence of agonist-induced platelet aggregation (P05106 27-788): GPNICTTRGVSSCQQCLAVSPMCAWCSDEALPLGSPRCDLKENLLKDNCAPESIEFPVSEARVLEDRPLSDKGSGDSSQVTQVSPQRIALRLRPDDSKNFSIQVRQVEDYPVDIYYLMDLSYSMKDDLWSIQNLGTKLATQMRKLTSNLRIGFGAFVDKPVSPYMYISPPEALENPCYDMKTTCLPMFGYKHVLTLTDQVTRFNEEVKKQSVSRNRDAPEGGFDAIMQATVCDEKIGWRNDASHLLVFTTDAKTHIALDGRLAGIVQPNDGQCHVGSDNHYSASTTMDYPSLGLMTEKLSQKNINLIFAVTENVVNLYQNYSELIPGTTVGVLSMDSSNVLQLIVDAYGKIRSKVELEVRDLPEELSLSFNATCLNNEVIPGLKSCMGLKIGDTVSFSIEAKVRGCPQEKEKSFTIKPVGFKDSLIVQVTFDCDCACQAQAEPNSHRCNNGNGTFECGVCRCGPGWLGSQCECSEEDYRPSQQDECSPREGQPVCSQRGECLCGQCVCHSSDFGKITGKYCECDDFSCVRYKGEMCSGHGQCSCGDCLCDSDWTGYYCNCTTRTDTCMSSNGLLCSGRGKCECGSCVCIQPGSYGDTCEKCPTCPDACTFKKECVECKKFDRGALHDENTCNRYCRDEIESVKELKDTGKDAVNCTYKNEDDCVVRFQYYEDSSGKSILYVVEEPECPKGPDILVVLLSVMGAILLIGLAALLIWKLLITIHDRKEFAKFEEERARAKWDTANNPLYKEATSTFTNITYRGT
# T2 sequence (P08514 32-887 limits assumed): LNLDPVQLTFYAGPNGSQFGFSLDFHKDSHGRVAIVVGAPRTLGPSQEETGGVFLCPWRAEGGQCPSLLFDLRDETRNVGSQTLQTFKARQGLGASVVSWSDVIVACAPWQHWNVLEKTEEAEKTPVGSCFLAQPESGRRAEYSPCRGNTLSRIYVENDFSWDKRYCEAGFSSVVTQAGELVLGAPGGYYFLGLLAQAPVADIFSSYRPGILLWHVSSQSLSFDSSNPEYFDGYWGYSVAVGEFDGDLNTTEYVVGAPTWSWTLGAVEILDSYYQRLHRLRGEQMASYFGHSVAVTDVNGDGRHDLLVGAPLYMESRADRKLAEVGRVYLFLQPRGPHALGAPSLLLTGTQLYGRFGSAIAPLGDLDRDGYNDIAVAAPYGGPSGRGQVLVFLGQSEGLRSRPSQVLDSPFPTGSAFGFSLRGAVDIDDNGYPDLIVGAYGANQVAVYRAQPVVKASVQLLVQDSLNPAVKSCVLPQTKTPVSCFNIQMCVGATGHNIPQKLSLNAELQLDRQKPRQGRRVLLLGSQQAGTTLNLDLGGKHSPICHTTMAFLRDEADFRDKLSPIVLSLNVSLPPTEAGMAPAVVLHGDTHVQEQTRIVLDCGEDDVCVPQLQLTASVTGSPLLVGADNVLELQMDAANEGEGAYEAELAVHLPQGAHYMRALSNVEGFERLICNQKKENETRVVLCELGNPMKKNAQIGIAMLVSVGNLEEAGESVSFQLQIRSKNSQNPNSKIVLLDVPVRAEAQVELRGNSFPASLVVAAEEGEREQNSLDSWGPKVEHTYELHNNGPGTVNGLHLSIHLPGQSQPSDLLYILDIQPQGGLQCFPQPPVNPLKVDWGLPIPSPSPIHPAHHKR
# T2 sequence (P08514 891-1039 partner limits assumed): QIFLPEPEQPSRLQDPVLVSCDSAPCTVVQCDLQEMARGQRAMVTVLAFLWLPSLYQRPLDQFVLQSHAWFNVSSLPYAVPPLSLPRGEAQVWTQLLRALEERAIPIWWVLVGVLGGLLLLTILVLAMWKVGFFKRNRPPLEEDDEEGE
# T2 sequence (P05106 27-788): as the sequence (P05106 27-788) above
# T1 sequence (P08514 32-887 limits assumed): as the sequence (P08514 32-887 limits assumed) above
# T1 sequence (P08514 891-1039 partner limits assumed): as the sequence (P08514 891-1039 partner limits assumed) above
# T1 sequence (P05106 27-788): as the sequence (P05106 27-788) above
compound,measurement,setting,value
"CC[C@H]1NC(=O)c2cccc(c2)CNC(=O)[C@H](CC(=O)O)NC(=O)CNC(=O)[C@H](CCCN=C(N)N)N(C)C1=O [Example 3, cyclo-(D-Abu-NMeArg-Gly-Asp-Mamb)] (cyclo([NMeR]GD[3Amb][dAbu]))",Ki,[1],0.4 nM
"CC[C@H]1NC(=O)c2cccc(c2)CNC(=O)[C@H](CC(=O)O)NC(=O)CNC(=O)[C@H](CCCNC(=N)N)N(C)C1=O [Example 3, cyclo-(D-Abu-NMeArg-Gly-Asp-Mamb)] (cyclo([NMeR]GD[3Amb][dAbu]))",lysis percentage,"[2]; 0.001 mM, platelet stimulation 1x10^-3 M ADP",≥ 70%
same,lytic effect on already formed platelet-rich clot,[2]; listed as A,significant lyric efficacy of pre-formed platelet rich-clot
same,lytic effect on already formed platelet-rich clot,[2]; listed as Compound A,significant lytic effect on the clot
same,Kd,[3],0.1 nM
same,in vivo thrombolytic efficacy with streptokinase,[4]; 1 mg/kg I.V. plus sub-optimum streptokinase (75 KU),significant synergistic effect in fully lysing the thrombus; also recorded: increase in in vivo thrombolytic efficacy while allowing a significantly lower dose of streptokinase
same,in vivo thrombolytic efficacy alone,[4]; 1 mg/kg I.V.,significant lysis of an already formed thrombus in the femoral artery; also recorded: good in vivo thrombolytic efficacy
same,deaggregation of platelets,[5]; added after initiation of aggregation,deaggregate platelets after the initiation of aggregation
same,IC50,[5],< 1000 nM
same,period without reocclusion,"[6]; 1.0 mg/kg I.V., post-thrombolysis",> 240 min
same,prevention of reocclusion,"[6]; 1.0 mg/kg I.V., post-thrombolysis with streptokinase or t-PA",100%
same,reocclusion following SK or t-PA thrombolysis,"[6]; dog, in vivo",virtually no reocclusion
same,displacement of 125I-fibrinogen bound to activated platelets,[7],displace ^125 I-fibrinogen bound to activated platelets
"CC(C)[C@H]1NC(=O)c2cccc(c2)CNC(=O)[C@H](CC(=O)O)NC(=O)CNC(=O)[C@H](CCCNC(=N)N)N(C)C1=O [Example 4, cyclo-(D-Val-NMeArg-Gly-Asp-Mamb)]",IC50,[2],500 to 1000 nM
same,"thrombolytic effect in combination with tPA, urokinase or streptokinase","[2]; in vitro, pre-formed platelet-rich clot",significantly better than the additive effects of both agents
same,lytic effect on already formed platelet-rich clot,[2]; listed as B,significant lyric efficacy of pre-formed platelet rich-clot
same,lytic effect on already formed platelet-rich clot,[2]; listed as Compound B,significant lytic effect on the clot
same,IC50,[5],< 1000 nM
"CC[C@H]1NC(=O)c2cc(ccc2Cl)CNC(=O)[C@H](CC(=O)O)NC(=O)CNC(=O)[C@H](CCCNC(=N)N)N(C)C1=O [Example 100a, cyclo-(D-Abu-NMeArg-Gly-Asp-3-aminomethyl-6-chlorobenzoic acid)] (cyclo([NMeR]GD[X4][dAbu]))",IC50,[5],< 1000 nM
"CC[C@H]1NC(=O)c2cc(ccc2I)CNC(=O)[C@H](CC(=O)O)NC(=O)CNC(=O)[C@H](CCCNC(=N)N)N(C)C1=O [Example 100b, cyclo-(D-Abu-NMeArg-Gly-Asp-3-aminomethyl-6-iodobenzoic acid)] (cyclo([NMeR]GD[X8][dAbu]))",IC50,[5],< 1000 nM
"CC[C@H]1NC(=O)c2cc(ccc2C)CNC(=O)[C@H](CC(=O)O)NC(=O)CNC(=O)[C@H](CCCNC(=N)N)N(C)C1=O [Example 100c, cyclo-(D-Abu-NMeArg-Gly-Asp-3-aminomethyl-6-methylbenzoic acid)] (cyclo([NMeR]GD[X3][dAbu]))",IC50,[5],< 1000 nM
"CC(=O)Oc1ccccc1C(=O)O [aspirin, acetylsalicyclic acid, reference compound]","effect on platelet granular secretion (PAI-1, serotonin)",[8],inhibit platelet granular secretion
hirudin,"effect on platelet granular secretion (PAI-1, serotonin)",[8],inhibit platelet granular secretion
